Data set [1] in a line: Critical micelle concentration by fluorescent staining with diphenylhexatriene (DPH). To be noted: aqueous solution. In kind it is physicochemical. The protocol:
A method for measuring CMC is not particularly limited, and a method widely known in the art may be used, for example, by fluorescence staining with diphenylhexatriene (DPH).
(§1) To identify the characteristics of NBMs synthesized in Preparation Example 1 to 6 according to the synthetic method of Example 1, molecular weights (MWs) of NBMs, critical micelle concentrations (CMCs) and hydrodynamic radii (Rh) of the micelles were measured.
(§2) Specifically, the critical micelle concentrations (CMCs) were measured by fluorescent staining with diphenylhexatriene (DPH), and the hydrodynamic radii (Rh) of the micelle formed with individual agents (1.0 wt %) were measured by dynamic light scattering (DLS).

Data set [2] is described as follows: Hydrodynamic radius / size distribution of micelles by dynamic light scattering (DLS). It is filed as physicochemical. To be noted: for Rh (nm), hydrodynamic radius of micelles: 1.0 wt % agent; for Micelle size change with temperature: temperature-dependent (FIGS. 7a, 7b). How it is done: A method for measuring the radius of a micelle is not particularly limited, and a method well known in the art may be used, and for example, the radius thereof may be measured using a dynamic light scattering (DLS) experiment.
as §1, §2

For data set [3], the system named is leucine transporter (LeuT). Briefly: LeuT stability: [3H]-Leu substrate binding by scintillation proximity assay (SPA). To be noted: t=12 day, CMC+0.04 wt %, room temperature. More on the design: species or system Aquifex aeolicus. The protocol: An experiment for measuring the stability of LeuT protein with NBMs was performed. Concentrations of individual amphiphilic compounds were (a) CMC+0.04 wt % and (b) CMC+0.2 wt %, and the stability of the LeuT protein was evaluated by measuring a LeuT substrate binding activity using [3H]-Leu via scintillation proximity assay (SPA). The measurement was performed at regular intervals during 12-day incubation at room temperature. Specifically, a wild-type leucine transporter (LeuT) derived from thermophilic bacteria Aquifex aeolicus was purified by the method described previously (G. Deckert et al., Nature 1998, 392, 353-358). LeuT was expressed in E. coli C41 (DE3) transformed with pET16b encoding C-terminally 8× His-tagged transporter (the expression plasmid was provided by Dr E. Gouaux, Vollum Institute, Portland, Oreg., USA). […] Protein samples were stored for 12 days at room temperature, and centrifuged at predetermined points of time, the substrate ([3H]-leucine)-binding activity of the transporter was determined via SPA by taking advantage of protein properties. […] Total [3H]-leucine binding for the respective samples was measured using a MicroBeta liquid scintillation counter (Perkin Elmer).

Data set [4] concerns the target T1, human β2 adrenergic receptor (β2AR) (Homo sapiens, UniProt P07550).
T1 construct: made in house
Briefly: β2AR stability: [3H]-DHA ligand binding activity of solubilized receptor. As to conditions: 0.2% amphiphile, room temperature, 3 days (7 days for receptor extracted with the amphiphile). The protocol: An experiment of measuring the stability of human β2 adrenergic receptor (β2AR) and G-protein-coupled receptor (GPCR) for NBMs was carried out. That is, the receptor was extracted from the cell membranes by DDM and purified in the same amphiphilic compound. The DDM-purified receptor was diluted in individual DDM- or NBM-containing buffers to adjust the final compound concentration to be CMC+0.2 wt %. The receptor stability was assessed by measuring ligand binding activity using [3H]-DHA.
To measure long-term stability of human β2AR with NBMs (D-NBM-C11 and X-NBM-C11) showing an excellent ligand binding activity of the receptor in the previous experiment, a radio-labeled ligand binding experiment was performed by the following method. β2AR was purified using 0.1% DDM (D. M. Rosenbaum et al., Science, 2007, 318, 1266-1273), and finally concentrated to approximately 10 mg/ml (approximately 200 μM). A main binding mixture containing 10 nM [^3H]-DHA supplemented with 0.5 mg/ml BSA was prepared in 0.2% amphiphilic compound (DDM or NBMs (D-NBM-C11 and X-NBM-C11)) using β2AR purified with DDM. The receptor purified with DDM or NBMs was incubated with 10 nM [^3H]-DHA at room temperature for 30 minutes. The mixture was loaded onto a G-50 column, the fractions were collected in a 1 ml binding buffer (20 mM HEPES pH 7.5, 100 mM NaCl, containing 0.5 mg/ml BSA and 20× CMC individual amphiphilic compounds). In addition, each fraction was supplemented with a 15 ml scintillation fluid, and receptor-bound [^3H]-DHA was measured using a scintillation counter (Beckman) at regular intervals for 3 days. The binding capacity of [^3H]-DHA was shown as a bar chart (FIG. 11a).
In addition, β2AR was extracted from the membrane using 1.0 wt % of DDM or X-NBM-C11 and purified at 0.2 wt % for the same individual amphiphilic compounds. Structural stability of the receptor was assessed by ligand binding activity, which was measured with sample aliquots at regular intervals during 7-day incubation at room temperature. Each experiment was carried out in triplicate (FIG. 12b).

Each structure is given as a SMILES string. “Also recorded” adds a separate entry of the source.

T1 sequence (P07550 whole entry): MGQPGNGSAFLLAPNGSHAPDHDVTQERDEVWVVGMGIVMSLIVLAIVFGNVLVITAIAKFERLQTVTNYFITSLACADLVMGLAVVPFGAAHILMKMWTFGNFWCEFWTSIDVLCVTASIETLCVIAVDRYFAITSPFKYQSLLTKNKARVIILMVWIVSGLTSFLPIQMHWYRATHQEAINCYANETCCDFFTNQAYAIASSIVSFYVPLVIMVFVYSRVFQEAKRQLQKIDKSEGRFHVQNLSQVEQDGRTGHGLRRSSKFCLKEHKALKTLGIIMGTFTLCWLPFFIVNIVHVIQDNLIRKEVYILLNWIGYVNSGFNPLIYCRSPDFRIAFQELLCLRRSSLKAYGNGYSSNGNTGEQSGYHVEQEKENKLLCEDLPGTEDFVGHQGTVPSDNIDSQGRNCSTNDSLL

Take `CCCCCCCCCCCOCC1C2CC([C@@H]1COCCCCCCCCCCC)[C@H](O[C@@H]1OC(CO)[C@@H](O[C@H]3OC(CO)[C@@H](O)C(O)C3O)C(O)C1O)C2O[C@@H]1OC(CO)[C@@H](O[C@H]2OC(CO)[C@@H](O)C(O)C2O)C(O)C1O` (stereo partly drawn) [D-NBM-C11]: in data set [1], the “CMC” value is given as about 0.007 mM and the “CMC (wt %)” value is reported as about 0.0008 wt %. Also, in data set [2], the “Rh (nm), hydrodynamic radius of micelles” value is reported as 3.7 ± 0.05 nm and the “Micelle size change with temperature” value is “not influenced by a temperature change”. Moreover, the “LeuT substrate binding activity at the end of incubation” value in data set [3] is “a little less than the initial activity of LeuT solubilized in DDM”. For the same compound, the “Long-term ligand binding activity of β2AR ([3H]-DHA)” value in data set [4] is “well retained”.
`CCCCCCCCCCCOCC1C2CC([C@H]1COCCCCCCCCCCC)[C@H](O[C@@H]1OC(CO)[C@@H](O[C@H]3OC(CO)[C@@H](O)C(O)C3O)C(O)C1O)C2O[C@@H]1OC(CO)[C@@H](O[C@H]2OC(CO)[C@@H](O)C(O)C2O)C(O)C1O` (stereo partly drawn) [X-NBM-C11]: in data set [1], the “CMC” value is listed as about 0.006 mM and the “CMC (wt %)” value is about 0.0007 wt %. In data set [2], the “Rh (nm), hydrodynamic radius of micelles” value was found to be 17.3 ± 0.10 nm and the “Micelle size change with temperature” value was “changed according to a temperature”. The “LeuT substrate binding activity at the end of incubation” value in data set [3] is given as “a little less than the initial activity of LeuT solubilized in DDM”. In data set [4], the “Long-term ligand binding activity of β2AR ([3H]-DHA)” value is given as “well retained; also recorded: highest ligand binding retention property”.

Values taken from patent US11279726B2, “Norbornene-based amphipathic compound and utilization thereof” (Industry-University Cooperation Foundation Hanyang …, priority 2017, dated 2022).
